Laboratory results: patent publication US20250282757A1, “ARYL ETHER-SUBSTITUTED HETEROCYCLIC COMPOUNDS AS GLP1R AGONISTS” (MINDRANK AI LTD., priority 2021, published 2025)

Target: GLP-1R (Homo sapiens, UniProt P43220)
Assay: Agonist activity on GLP-1R, HTRF cAMP detection in stably transfected GLP-1R/HEK293 cells
Type: cell-based
Settings: for EC50: 30 min incubation; for Max activity: relative to top concentration of reference GLP-1(7-37)
Method: Detection of Agonist Activity of the Test Compounds on GLP-1R
• 1) The test compound was dissolved in DMSO and diluted 4-fold with Bravo for a total of 10 concentration gradients (the starting concentration was 1 mM). […] HBSS (10 mL) pre-warmed at 37° C. was added, mixed gently, and centrifuged at 1000 rpm for 5 minutes. The supernatant was discarded and another 10 mL of […] was added and mixed gently. […] The plate was shaken to mix at 2000 rpm for 60 seconds. • 7) The cells in the 384-well plate were incubated in CO2 cell incubator at 37° C. for 30 min. • 8) 10 μL of HTRF cAMP detection solution was added to the 384-well plate, stick with sealing film, and incubated at room temperature for 1 hour. • 9) After 1 hour of incubation, the sealing film was removed. The plate was put into the EnVision microplate reader to read the values of OD665 nm and OD615 nm.

Sequence of GLP-1R (P43220 24-463): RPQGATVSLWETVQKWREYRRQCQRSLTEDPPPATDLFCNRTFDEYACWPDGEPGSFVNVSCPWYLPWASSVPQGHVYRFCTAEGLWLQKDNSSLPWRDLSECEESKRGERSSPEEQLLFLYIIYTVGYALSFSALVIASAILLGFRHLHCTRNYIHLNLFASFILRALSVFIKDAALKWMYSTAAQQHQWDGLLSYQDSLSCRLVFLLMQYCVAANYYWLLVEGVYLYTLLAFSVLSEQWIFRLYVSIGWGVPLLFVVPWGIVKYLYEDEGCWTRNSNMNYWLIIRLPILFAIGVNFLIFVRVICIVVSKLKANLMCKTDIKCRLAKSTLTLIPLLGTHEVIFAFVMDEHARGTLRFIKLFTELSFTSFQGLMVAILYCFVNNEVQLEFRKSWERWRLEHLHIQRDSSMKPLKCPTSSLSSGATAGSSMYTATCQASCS

EC50 [nM]	Max activity [%]	Compound
> 100	–	CCn1cncc1Cn1c(CN2CCN(Cc3cccc(COc4ccc(C#N)cc4F)n3)CC2)nc2ccc(C(=O)O)cc21 [Compound C38, 2-((4-((6-((4-cyano-2-fluorophenoxy)methyl)pyridin-2-yl)methyl)piperazin-1-yl)methyl)-1-((1-ethyl-1H-imidazol-5-yl)methyl)-1H-benzo[d]imidazole-6-carboxylic acid]
7.93	142.8	CCn1nccc1Cn1c(CN2CCC(Oc3cccc(COc4ccc(C#N)cc4F)n3)CC2)nc2ccc(C(=O)O)cc21 [Compound C39, 2-((4-((6-((4-cyano-2-fluorophenoxy)methyl)pyridin-2-yl)oxy)piperidin-1-yl)methyl)-1-((1-ethyl-1H-pyrazol-5-yl)methyl)-1H-benzo[d]imidazole-6-carboxylic acid]
6.5	90.7	CCn1nc(C)cc1Cn1c(CN2CCC(Oc3cccc(COc4ccc(C#N)cc4F)n3)CC2)nc2ccc(C(=O)O)cc21 [Compound C40, 2-((4-((6-((4-cyano-2-fluorophenoxy)methyl)pyridin-2-yl)oxy)piperidin-1-yl)methyl)-1-((1-ethyl-3-methyl-1H-pyrazol-5-yl)methyl)-1H-benzo[d]imidazole-6-carboxylic acid]
4.16	122.3	N#Cc1ccc(OCc2cccc(SC3CCN(Cc4nc5ccc(C(=O)O)cc5n4C[C@@H]4CCO4)CC3)n2)c(F)c1 [Compound C41, (S)-2-((4-((6-((4-cyano-2-fluorophenoxy)methyl)pyridin-2-yl)thio)piperidin-1-yl)methyl)-1-(oxetan-2-ylmethyl)-1H-benzo[d]imidazole-6-carboxylic acid]
> 100	–	N#Cc1ccc(OCc2cccc(OC3CCN(Cc4cc5ccc(C(=O)O)cc5n4CC4CCO4)CC3)n2)c(F)c1 (stereo not drawn) [Compound C42, 2-((4-((6-((4-cyano-2-fluorophenoxy)methyl)pyridin-2-yl)oxy)piperidin-1-yl)methyl)-1-(oxetan-2-ylmethyl)-1H-indole-6-carboxylic acid]
5.31	88.8	N#Cc1ccc(COc2cccc(Oc3cc(F)c(Cc4nc5c(F)cc(C(=O)O)cc5n4C[C@@H]4CCO4)cc3F)n2)c(F)c1 [Compound C43, (S)-2-(4-((6-((4-cyano-2-fluorobenzyl)oxy)pyridin-2-yl)oxy)-2,5-difluorobenzyl)-4-fluoro-1-(oxetan-2-ylmethyl)-1H-benzo[d]imidazole-6-carboxylic acid]
7.48	90.7	N#Cc1ccc(OCc2cccc(OC3CCN(Cc4nc5ccc(C(=O)O)cc5n4CC4COC4)CC3)n2)c(F)c1 [Compound C82, 2-((4-((6-((4-cyano-2-fluorophenoxy)methyl)pyridin-2-yl)oxy)piperidin-1-yl)methyl)-1-(oxetan-3-ylmethyl)-1H-benzo[d]imidazole-6-carboxylic acid]
0.705	111.1	N#Cc1ccc(OCc2nc(OC3CCN(Cc4nc5ccc(C(=O)O)cc5n4C[C@@H]4CCO4)CC3)ccc2F)c(F)c1 [Compound C83, (S)-2-((4-((6-((4-cyano-2-fluorophenoxy)methyl)-5-fluoropyridin-2-yl)oxy)piperidin-1-yl)methyl)-1-(oxetan-2-ylmethyl)-1H-benzo[d]imidazole-6-carboxylic acid]
0.246	136.4	N#CCC1(Cn2c(CN3CCC(Oc4cccc(COc5ccc(Cl)cc5F)n4)CC3)nc3ccc(C(=O)O)cc32)CC1 [Compound C84, 2-((4-((6-((4-chloro-2-fluorophenoxy)methyl)pyridin-2-yl)oxy)piperidin-1-yl)methyl)-1-((1-(cyanomethyl)cyclopropyl)methyl)-1H-benzo[d]imidazole-6-carboxylic acid]
1400	93.7	N#Cc1ccc(COc2cccc(OCC3CCN(Cc4nc5ccc(C(=O)O)cc5n4C[C@@H]4CCO4)CC3)n2)c(F)c1 [Compound S1]
5.58	139.9	N#Cc1ccc(COc2cccc(OC3CCN(Cc4nc5ccc(C(=O)O)cc5n4C[C@@H]4CCO4)CC3)n2)c(F)c1 [Compound S2, (S)-2-((4-((6-((4-cyano-2-fluorobenzyl)oxy)pyridin-2-yl)oxy)piperidin-1-yl)methyl)-1-(oxetan-2-ylmethyl)-1H-benzo[d]imidazole-6-carboxylic acid]
2170	70.1	N#Cc1ccc(COc2cccc(OC3CN(Cc4nc5ccc(C(=O)O)cc5n4C[C@@H]4CCO4)C3)n2)c(F)c1 [Compound S3, (S)-2-((3-((6-((4-cyano-2-fluorobenzyl)oxy)pyridin-2-yl)oxy)azetidin-1-yl)methyl)-1-(oxetan-2-ylmethyl)-1H-benzo[d]imidazole-6-carboxylic acid]
0.29	106.9	CCn1cncc1Cn1c(CN2CCC(Oc3cccc(OCc4ccc(C#N)cc4F)n3)CC2)nc2ccc(C(=O)O)cc21 [Compound S4, 2-((4-((6-((4-cyano-2-fluorobenzyl)oxy)pyridin-2-yl)oxy)piperidin-1-yl)methyl)-1-((1-ethyl-1H-imidazol-5-yl)methyl)-1H-benzo[d]imidazole-6-carboxylic acid]
15.4	125.2	N#Cc1ccc(COc2cccc(OC3CCN(Cc4nc5ccc(C(=O)O)cc5n4C[C@@H]4CCO4)CC3)c2)c(F)c1 [Compound S5, (S)-2-((4-(3-((4-cyano-2-fluorobenzyl)oxy)phenoxy)piperidin-1-yl)methyl)-1-(oxetan-2-ylmethyl)-1H-benzo[d]imidazole-6-carboxylic acid]
2.6	114.9	N#CCC1(Cn2c(CN3CCC(Oc4cccc(OCc5ccc(C#N)cc5F)c4)CC3)nc3c(F)cc(C(=O)O)cc32)CC1 [Compound S6]
0.962	129.1	N#CCC1(Cn2c(CN3CCC(Oc4cccc(OCc5ccc(C#N)cc5F)n4)CC3)nc3c(F)cc(C(=O)O)cc32)CC1 [Compound S20]
731	92.7	N#Cc1ccc(COc2cccc(COC3CCN(Cc4nc5ccc(C(=O)O)cc5n4C[C@@H]4CCO4)CC3)n2)c(F)c1 [Compound S22, (S)-2-((4-((6-((4-cyano-2-fluorobenzyl)oxy)pyridin-2-yl)methoxy)piperidin-1-yl)methyl)-1-(oxetan-2-ylmethyl)-1H-benzo[d]imidazole-6-carboxylic acid]
1.47	98.0	CCn1cncc1Cn1c(CN2CCC(Oc3cccc(OCc4ccc(C#N)cc4F)c3)CC2)nc2ccc(C(=O)O)cc21 [Compound S23, 2-((4-(3-((4-cyano-2-fluorobenzyl)oxy)phenoxy)piperidin-1-yl)methyl)-1-((1-ethyl-1H-imidazol-5-yl)methyl)-1H-benzo[d]imidazole-6-carboxylic acid]
150	114.2	O=C(O)/C=C/c1ccc2nc(CN3CCC(Oc4ccc(F)c(OCc5ccc(Cl)cc5F)n4)CC3)n(C[C@@H]3CCO3)c2c1 [Compound S36]
21.7	94.8	N#CCC1(Cn2c(CN3CCC(Oc4ccc(F)c(OCc5ccc(Cl)cc5F)n4)CC3)nc3c(F)cc(C(=O)O)cc32)CC1 [Compound S41, 2-((4-((6-((4-chloro-2-fluorobenzyl)oxy)-5-fluoropyridin-2-yl)oxy)piperidin-1-yl)methyl)-1-((1-(cyanomethyl)cyclopropyl)methyl)-4-fluoro-1H-benzo[d]imidazole-6-carboxylic acid]

Compound	EC50 [nM]	Max activity [%]
Glucagon-like peptide-1 [GLP-1(7-37), reference compound]	–	98.1
